The subject of this test is L1210 leukemia ip in BDF1 mice, survival T/C. The test is described as follows: NCI In Vivo Anticancer Drug Screen. Data for tumor model L1210 Leukemia (intraperitoneal) in B6D2F1 (BDF1) mice. As to conditions: endpoint: mean survival time, higher = longer survival. Put shortly:
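Tumor cells were implanted, animals were treated, and survival was followed. The result divides the treated measurement by the vehicle-control measurement.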

Setting [1] is: dose: 100.0 mg/kg/injection, schedule: Q04DX002 (ip), vehicle: Klucel (hydroxypropylcellulose) (HPC).
[2] abbreviates: dose: 200.0 mg/kg/injection, schedule: Q04DX002 (ip), vehicle: Klucel (hydroxypropylcellulose) (HPC).
Setting [3] is: dose: 400.0 mg/kg/injection, schedule: Q04DX002 (ip), vehicle: Klucel (hydroxypropylcellulose) (HPC).
Where [4] appears, read: dose: 100.0 mg/kg/injection, schedule: Q01DX001 (ip), vehicle: saline.
The mark [5] stands for this setting: dose: 200.0 mg/kg/injection, schedule: Q01DX001 (ip), vehicle: saline.
The mark [6] stands for this setting: dose: 400.0 mg/kg/injection, schedule: Q01DX001 (ip), vehicle: saline.
Setting [7] is: dose: 50.0 mg/kg/injection, schedule: Q01DX009 (ip), vehicle: Klucel (hydroxypropylcellulose) (HPC).
Setting [8] is: dose: 100.0 mg/kg/injection, schedule: Q01DX009 (ip), vehicle: Klucel (hydroxypropylcellulose) (HPC).
[9] abbreviates: dose: 100.0 mg/kg/injection, schedule: Q04DX003 (ip), vehicle: Klucel (hydroxypropylcellulose) (HPC).
Where [10] appears, read: dose: 100.0 mg/kg/injection, schedule: Q01DX001 (ip), vehicle: other.
Where [11] appears, read: dose: 200.0 mg/kg/injection, schedule: Q01DX001 (ip), vehicle: other.
[12] abbreviates: dose: 5.0 mg/kg/injection, schedule: Q01DX001 (ip), vehicle: saline.
[13] abbreviates: dose: 10.0 mg/kg/injection, schedule: Q01DX001 (ip), vehicle: saline.
[14] abbreviates: dose: 20.0 mg/kg/injection, schedule: Q01DX001 (ip), vehicle: saline.
Setting [15] is: dose: 40.0 mg/kg/injection, schedule: Q01DX001 (ip), vehicle: saline.
Where [16] appears, read: dose: 100.0 mg/kg/injection, schedule: Q04DX003 (ip), vehicle: saline with Tween-80.
[17] abbreviates: dose: 200.0 mg/kg/injection, schedule: Q04DX003 (ip), vehicle: saline with Tween-80.

SMILES strings stand for the structures. Inconclusive results and toxic doses are left out.

As for `Cc1c(C(=O)O)c(-c2ccc([N+](=O)[O-])cc2)c(C=O)n1-c1ccccc1`, the T/C was 91 % of control under setting [1], 97 % of control under setting [2] and 102 % of control under setting [3].
For `O=C1OC(=O)C2C(c3ccccc3)=CC(c3ccccc3)=CC12` (stereo not drawn), the T/C under setting [4] was 98 % of control, the T/C under setting [5] is 107 % of control and the T/C under setting [6] was 102 % of control.
With `CC(O)C[As](=O)(O)c1cccc(Cl)c1` (stereo not drawn), the T/C (dose: 12.5 mg/kg/injection, schedule: Q01DX001 (ip), vehicle: Klucel (hydroxypropylcellulose) (HPC)) is 108 % of control.
On to `CS(=O)(=O)Oc1cccc(C(F)(F)F)c1`, for which the T/C by setting is: (dose: 100.0 mg/kg/injection, schedule: Q01DX001 (ip), vehicle: carboxymethylcellulose (CMC)) 107 % of control; (dose: 200.0 mg/kg/injection, schedule: Q01DX001 (ip), vehicle: carboxymethylcellulose (CMC)) 95 % of control; (dose: 400.0 mg/kg/injection, schedule: Q01DX001 (ip), vehicle: carboxymethylcellulose (CMC)) 98 % of control.
Take `Cc1nnn2ccccc12`: the T/C (dose: 25.0 mg/kg/injection, schedule: Q01DX001 (ip), vehicle: saline) is 96 % of control; the T/C (dose: 50.0 mg/kg/injection, schedule: Q01DX001 (ip), vehicle: saline) is 100 % of control; the T/C under setting [4] is 100 % of control.
Turning to `CCN1C(C)C1C(C)C` (stereo not drawn), the T/C was 105 % of control (dose: 25.0 mg/kg/injection, schedule: Q01DX009 (ip), vehicle: Klucel (hydroxypropylcellulose) (HPC)); 107 % of control under setting [7]; 109 % of control under setting [8]; 117 % of control under setting [9].
`O=C1c2cc([N+](=O)[O-])ccc2CCC1C(O)(C(F)(F)F)C(F)(F)F` (stereo not drawn): the T/C was 100 % of control (dose: 100.0 mg/kg/injection, schedule: Q01DX001 (ip), vehicle: saline with Tween-80); 102 % of control (dose: 200.0 mg/kg/injection, schedule: Q01DX001 (ip), vehicle: saline with Tween-80); 100 % of control (dose: 400.0 mg/kg/injection, schedule: Q01DX001 (ip), vehicle: saline with Tween-80).
`CCOC(=O)CCc1c(C(=O)OCC)[nH]c(C)c1C(=O)O`: the T/C is, setting by setting: under setting [9], 95 % of control; (dose: 200.0 mg/kg/injection, schedule: Q04DX003 (ip), vehicle: Klucel (hydroxypropylcellulose) (HPC)) 98 % of control; (dose: 400.0 mg/kg/injection, schedule: Q04DX003 (ip), vehicle: Klucel (hydroxypropylcellulose) (HPC)) 97 % of control.
For the molecule `Clc1ncnc2c1ncn2C1CCCCO1` (stereo not drawn), the T/C is, setting by setting: (dose: 31.0 mg/kg/injection, schedule: Q01DX Z (ip), vehicle: other) 101 % of control; (dose: 62.0 mg/kg/injection, schedule: Q01DX Z (ip), vehicle: other) 103 % of control; under setting [4], 91 % of control; (dose: 100.0 mg/kg/injection, schedule: Q01DX009 (ip), vehicle: saline sonified) 110 % of control; (dose: 175.0 mg/kg/injection, schedule: Q01DX015 (ip), vehicle: saline) 113 % of control; under setting [5], 98 % of control. Besides, the T/C is 118 % of control (dose: 200.0 mg/kg/injection, schedule: Q01DX009 (ip), vehicle: saline sonified); 123 % of control (dose: 265.0 mg/kg/injection, schedule: Q01DX015 (ip), vehicle: saline); 102 % of control under setting [6]; 150 % of control (dose: 400.0 mg/kg/injection, schedule: Q01DX009 (ip), vehicle: saline sonified); 123 % of control (dose: 400.0 mg/kg/injection, schedule: Q01DX015 (ip), vehicle: saline).
For `CCOC(=O)c1nnn(-c2cccc(C(F)(F)F)c2)c1-c1ccccc1`, the T/C was 101 % of control under setting [1], 105 % of control under setting [2] and 96 % of control under setting [3].
As to `CS(=O)(=O)Cc1ccccc1`, the T/C is 101 % of control under setting [8]; 86 % of control under setting [1]; 101 % of control (dose: 200.0 mg/kg/injection, schedule: Q01DX009 (ip), vehicle: Klucel (hydroxypropylcellulose) (HPC)); 101 % of control under setting [2]; 86 % of control (dose: 400.0 mg/kg/injection, schedule: Q01DX009 (ip), vehicle: Klucel (hydroxypropylcellulose) (HPC)); 90 % of control under setting [3].
Consider `OC(c1ccccc1)(c1ccccc1)C1CCC1`, for which the T/C reads like this: under setting [7], 100 % of control; (dose: 75.0 mg/kg/injection, schedule: Q01DX001 (ip), vehicle: Klucel (hydroxypropylcellulose) (HPC)) 95 % of control; under setting [8], 94 % of control; (dose: 150.0 mg/kg/injection, schedule: Q01DX001 (ip), vehicle: Klucel (hydroxypropylcellulose) (HPC)) 101 % of control; (dose: 300.0 mg/kg/injection, schedule: Q01DX001 (ip), vehicle: Klucel (hydroxypropylcellulose) (HPC)) 98 % of control.
On to `C1CCN(c2c3c(nc4nnnn24)CCC3)CC1`, for which the T/C runs as follows: (dose: 5.0 mg/kg/injection, schedule: Q01DX001 (ip), vehicle: other) 98 % of control; (dose: 10.0 mg/kg/injection, schedule: Q01DX001 (ip), vehicle: other) 96 % of control; (dose: 20.0 mg/kg/injection, schedule: Q01DX001 (ip), vehicle: other) 98 % of control; (dose: 40.0 mg/kg/injection, schedule: Q01DX001 (ip), vehicle: other) 110 % of control; (dose: 80.0 mg/kg/injection, schedule: Q01DX001 (ip), vehicle: other) 96 % of control; under setting [10], 96 % of control. The T/C under setting [11] is 96 % of control.
Regarding `CCC(=O)C(c1ccccc1)(c1ccccc1)C(C)CN(C)C` (stereo not drawn), the T/C under setting [12] is 102 % of control, the T/C under setting [13] was 104 % of control, the T/C under setting [14] was 96 % of control and the T/C under setting [15] is 87 % of control.
Take `Cc1ccc(C(SCC(N)C(=O)O)(c2ccc(C)cc2)c2ccc(C)cc2)cc1` (stereo not drawn): the T/C is 95 % of control (dose: 4.8 mg/kg/injection, schedule: Q01DX009 (ip), vehicle: saline); 108 % of control (dose: 6.5 mg/kg/injection, schedule: Q01DX009 (ip), vehicle: saline); 104 % of control (dose: 7.2 mg/kg/injection, schedule: Q01DX009 (ip), vehicle: saline); 123 % of control (dose: 12.5 mg/kg/injection, schedule: Q01DX009 (ip), vehicle: saline); 120 % of control (dose: 50.0 mg/kg/injection, schedule: Q01DX009 (ip), vehicle: other); 157 % of control (dose: 50.0 mg/kg/injection, schedule: Q01DX009 (ip), vehicle: saline). For the same molecule, the T/C (dose: 100.0 mg/kg/injection, schedule: Q01DX009 (ip), vehicle: saline) is 221 % of control and the T/C (dose: 400.0 mg/kg/injection, schedule: Q01DX009 (ip), vehicle: other) was 94 % of control.
Regarding `CC(=O)Oc1ccccc1OC(=S)N(C)C`, the T/C is 106 % of control under setting [16]; 111 % of control under setting [17]; 105 % of control (dose: 400.0 mg/kg/injection, schedule: Q04DX003 (ip), vehicle: saline with Tween-80).
With `[N-]=[N+]=C1C(c2ccccc2)=NC(c2nccc3ccccc23)=C1[N+](=O)[O-]`, the T/C is, setting by setting: under setting [12], 113 % of control; under setting [13], 102 % of control; under setting [14], 110 % of control.
Take `CC(=O)OCC1OC(OC(C)=O)C(NC(=O)NCCCl)C(OC(C)=O)C1OC(C)=O` (stereo not drawn): the T/C runs as follows: under setting [10], 97 % of control; under setting [11], 101 % of control; (dose: 400.0 mg/kg/injection, schedule: Q01DX001 (ip), vehicle: other) 97 % of control.
Consider `O=C(C[n+]1ccccc1-c1ccccn1)c1ccccc1`, for which the T/C runs as follows: under setting [12], 103 % of control; under setting [13], 103 % of control; under setting [14], 105 % of control; under setting [15], 113 % of control.
Turning to `COC(=O)C1c2ccoc2CC2C1C(O)C(O)C1C(C)(C)CCCC21C` (stereo not drawn), the T/C is, setting by setting: (dose: 50.0 mg/kg/injection, schedule: Q04DX003 (ip), vehicle: saline with Tween-80) 103 % of control; under setting [16], 95 % of control; under setting [17], 95 % of control.

Values taken from PubChem BioAssay AID248 (DTP/NCI, 2004).
